Entries after “also recorded” stand apart in the source; their conditions may differ. Read-outs that look alike come from different tables or passages of the source. Where a SMILES comes first, the peptide text is derived from it. The star is where a group is joined. Cbz = O=C(OCc1ccccc1)*
Key:
[1] = test system: rat cortical neurons; assay: MTT cell viability assay; details: for effect on cis-RSV-mediated neuroprotective effects: combination with cis-RSV, NMDA toxicity; for neurotoxicity (viability): D-amino acid alone; for effect on trans-RSV-mediated neurotoxicity: combination with trans-RSV
Experimental: (§4) Rat cortical neurons (DIV9-11) were exposed to different treatments (NMDA, ETO, H2O2, MPP+) after seeding 20,000 cells/well in 96-well plates. Cell viability was then assessed at 48 hr after the initial exposure to NMDA. 3-[4,5-dimethylthiazole-2-yl]-2,5-diphenyltetrazolium bromide (MTT) assays were used to assess change in cell viability. […] Cultured rat cortical neurons were incubated with MTT (0.5 mg/mL). In the MTT assay, after 2 hr incubation, the insoluble purple product formazan resulting from the reduction of MTT by NAD (P) H-dependent oxidoreductases present in cells with viable mitochondria was solubilized in dimethyl sulfoxide at room temperature, under agitation, and protected from light. The percentage of MTT reduced as measured by the difference between the absorbances at 570 nm read in a spectrophotometer (SpectraMax® 190R Molecular Devices, UK).

[2] = test system: rat cortical neurons
Experimental: as §4

[3] = test system: histone H3-Ser10-ADP-ribosylation; assay: Histone H3 serine-ADP-ribosylation immunoblot in cortical neurons; type: cell-based, rat; details: for histone H3 serine-ADP-ribosylation: compound alone; for histone serine-ADP-ribosylation: picomolar concentration (5-50 pM)
Experimental: FIG. 5B presents representative immunoblots and quantification of histone H3-Ser10-ADP-ribosylation levels in cortical neurons (DIV9) using anti-H3-Ser10-ADPR antibody after treatment with D-tyrosine (2.5 and 5 mM).
(§1) Cultured neurons (DIV 9-10) were washed once with cold 1×PBS and lysed in cell lysis buffer (20 mM Tris-HCl (pH 7.5), 150 mM NaCl, 1 mM Na2EDTA, 1 mM EGTA, 1% Triton™, 2.5 mM sodium pyrophosphate, 1 mM beta-glycerophosphate, 1 mM Na3VO4, 1 μg/ml leupeptin supplemented with protease inhibitor). The lysates were centrifuged at 10,000 RPM for 15 mins at 4° C. to separate the chromatin-bound and soluble fractions. Lysates were quantified using Bio-Rad™ Protein Assay and equal amounts of protein were loaded onto a 4 to 12% gradient gel (Invitrogen™ NuPAGE™). Protein was transferred from the gel to 0.2 μm NC membranes at 25 V for 10 mins using transfer stacks (iBlot™ 2-Invitrogen™) and blocked with 5% non-fat milk in TBST (10 mM Tris-HCl pH 8.0, 150 mM NaCl, 0.01% Tween-20) for 1 hr before application of primary antibodies. Primary and secondary antibodies were incubated overnight at 4° C. and for 1 hr at room temperature, respectively. Immobilon® ECL Ultra Western HRP Substrate (WBULS0500, Millipore™) and a luminescent image analyzer (ChemiDoc™ Imaging System, Bio-Rad™) were used to detect proteins. Quantification of western blots was done using ImageJ (Version 1.53c).

[4] = test system: cleaved caspase-3; assay: Cleaved caspase-3 immunoblot; type: cell-based, rat; details: compound alone; trans-RSV at high concentration
Experimental: FIG. 17E presents immunoblots showing the levels of cleaved caspase-3 in rat cortical neurons (DIV 9/10) after the treatment with D-Tyr (2 mM) for 16 hr.

[5] = test system: TyrRS; type: cell-based, rat; details: for levels of neuronal TyrRS: neurotoxic agent alone, after 4 hr of treatment; for neuronal TyrRS levels: picomolar concentration (5-50 pM)
Experimental: (§2) Primary cortical neurons were dissected from E18 Sprague Dawley rat pups in Hibernate E (BrainBits®) and dissociated using the Neural Tissue Dissociation kit (Miltenyi Biotec). Minced cortices were incubated in a pre-warmed enzyme mix at 37° C. for 15 min; tissues were then triturated and strained using a 40 μm cell strainer. After washing and centrifugation, neurons were seeded in 50 μg/ml poly-D-Lysine (Sigma-Aldrich) coated tissue culture plates. NBActive-1 medium (BrainBits®) supplemented with 100 U/ml of Penicillin-Streptomycin (Life Technologies™), 2 mM L-Glutamine (Life Technologies™), and 1×N21 supplement (R&D Systems™) was used as culture medium. For preparation of culture medium containing reduced tyrosine, the components of NBActive-1 medium were altered to combined with a reduced concentration of tyrosine, as mentioned in Table 1, and was supplemented with 100 U/ml of Penicillin-Streptomycin (Life Technologies™), 2 mM L-Glutamine (Life Technologies™), and 1×N21 supplement (R&D Systems™) to obtained culture medium with reduced tyrosine. Control (non-targeting), TyrRS, and PARP1 siRNAs were obtained from Invitrogen™ (#AM4635, s443, and s130207, respectively). Rat cortical neurons at 5 DIV were transfected with 75 nM control or TyrRS siRNA using DharmaFECT™ 3 Transfection Reagent. A second transfection was done two days later using 75 nM of TyrRS siRNA, followed by cell collection or assays after another 48 hr. For PARP1 siRNA, neurons at 7 DIV were transfected with 75 nM siRNA for both control and PARP1 siRNA.
as §1
Cultured cortical neurons (DIV 9-10) were fixed in 4% formaldehyde for 15 min, followed by permeabilization and blocking for 30 min in 5% BSA (PBS) and 0.1% Tween™ 20 at room temperature. Incubation with primary antibodies was done at 4° C. overnight. The names and dilutions of the primary antibodies used for IF are described in Table 3. Secondary antibodies were incubated for 1 hr at room temperature. Secondary antibodies used were Alexa Fluor® 647 (anti-chicken), Alexa Fluor® 555 (anti-mouse), Alexa Fluor® 488 (anti-rabbit) from Invitrogen™ at 1:1000 dilution. Coverslips were then mounted using DAPI (4′,6-diamidino-2-phenylindole)-supplemented mounting medium, ProLong™ Gold Antifade (Invitrogen™) and imaged with Leica DMI6000 epifluorescent microscope using oil immersion 63×/NA 1.4 objective. The quantification for total protein levels in neurons was done using ImageJ (version 1.53c), and imaging parameters were matched for exposure, gain, and offset.
(§3) The various compounds used for treatments and their stock concentrations in Table 4.

[6] = test system: PheRSα/β; assay: PheRSα/β protein levels in cortical neurons (Western blot); type: cell-based, rat; details: for PheRSβ levels: compound alone
Experimental: as §2, §1, §3

[7] = test system: HPF1; assay: HPF1 levels immunoblot in cortical neurons; type: cell-based, rat; details: compound alone
Experimental: FIG. 5A presents immunoblots showing the protein levels of HPF1 in rat cortical neurons (DIV9-10) after treatment with Tyr ([…]) for up to 8 hr.
as §1

[8] = test system: eEF2; assay: eEF2 phosphorylation (p-eEF2) Western blot in cortical neurons; type: cell-based, rat; details: compound alone
Experimental: as §2, §1

[9] = test system: monosomes; assay: Monosome formation in cortical neurons; type: cell-based, rat
[10] = test system: neuronal chromatin; assay: Chromatin fraction immunoblots of cortical neurons; type: cell-based, rat; details: picomolar concentration
Experimental: as §1

[11] = compound alone, rat cortical neurons

CN(C)Cc1ccc(-c2nc3cccc4c3n2CCNC4=O)cc1 [AG-14361]
effect on cis-RSV-mediated neuroprotective effects [1]: did not affect cis-RSV-mediated neuroprotective effects

N[C@H](Cc1ccccc1)C(=O)O [D-Phe]
neurotoxicity (viability) [1]: had no significant effects

N[C@H](Cc1c[nH]c2ccccc12)C(=O)O [D-Trp]
neurotoxicity (viability) [2]: had no significant effects

N[C@H](Cc1ccc(O)cc1)C(=O)O [D-Tyr, D-tyrosine]
neurotoxicity (viability) [1]: induced neurotoxicity
histone H3 serine-ADP-ribosylation [3]: potent inhibitor of TyrRS/PARP1/HPF1-dependent serine-ADP-ribosylation and DNA repair
levels of cleaved caspase-3 [4]: increased the levels of cleaved caspase-3

NCCc1ccc(O)c(O)c1 [DA, dopamine]
TyrRS protein levels [5]: increased the protein levels of TyrRS
effect on trans-RSV-mediated neurotoxicity [1]: protected against neurotoxic effects of trans-RSV
histone H3 serine-ADP-ribosylation [3]: stimulated histone H3 serine-ADP-ribosylation

NCCc1cc(O)c(O)cc1O [Formula 6-OHDA, 6-hydroxydopamine]
TyrRS protein levels [5, 11]: decreased the levels of TyrRS
PheRSβ levels [6]: decreased the levels of TyrRS and PheRSβ

O=C(COc1ccc(Cl)cc1)NC1CCC(NC(=O)COc2ccc(Cl)cc2)CC1 (stereo not shown) [ISRIB]
TyrRS protein levels ([5]; ISRIB 5-50 nM): increased the protein levels of TyrRS
effect on trans-RSV mediated depletion of TyrRS ([5]; combination with trans-RSV): rescued trans-RSV mediated depletion of TyrRS
TyrRS levels ([5]; higher doses of ISRIB (250-500 nM)): decreased TyrRS levels
PheRSβ protein levels ([6]; ISRIB 5-50 nM): increased the protein levels of TyrRS and PheRSβ
effect on trans-RSV-mediated neurotoxicity [1]: protected against neurotoxic effects of trans-RSV
histone H3 serine-ADP-ribosylation [3]: induction of histone H3 serine-ADP-ribosylation
HPF1 levels [7]: increased HPF1 levels
eEF2 phosphorylation (p-eEF2) [8]: stimulated the dephosphorylation of eEF2

N[C@@H](Cc1ccc(O)c(O)c1)C(=O)O [L-DOPA, 3,4-dihydroxy-L-phenylalanine]
TyrRS protein levels [5, 11]: decreased the levels of TyrRS
PheRSβ levels [6]: decreased the levels of TyrRS and PheRSβ

CC(C)C[C@@H](C=O)NC(=O)[C@H](CC(C)C)NC(=O)[C@H](CC(C)C)NC(=O)OCc1ccccc1 [MG132] (Cbz-Leu-Leu-Leu-aldehyde)
TyrRS protein levels [5, 11]: increased the levels of TyrRS

C[n+]1ccc(-c2ccccc2)cc1 [MPP+, 1-methyl-4-phenylpyridinium]
levels of neuronal TyrRS [5]: decreased the levels of neuronal TyrRS

CN[C@H](CC(=O)O)C(=O)O [NMDA, N-Methyl-D-aspartate]
levels of neuronal TyrRS [5]: decreased the levels of neuronal TyrRS

CO/C1=C\C(C)=C\[C@@H](C)[C@@H](O)[C@@H](C)C/C(C)=C/C=C/[C@H](OC)[C@@H]([C@@H](C)[C@@H](O)[C@H](C)[C@@]2(O)C[C@@H](O)[C@H](C)[C@@H](C(C)C)O2)OC1=O [bafilomycin]
TyrRS protein levels [5, 11]: increased the levels of TyrRS

C[C@@H]1C[C@@H]([C@H](O)CC2CC(=O)NC(=O)C2)C(=O)[C@@H](C)C1 [cycloheximide]
effect on cis-RSV-mediated increase in TyrRS level ([5]; combination with cis-RSV): abrogated
TyrRS protein levels [5, 11]: decreased TyrRS levels

CCn1c(=O)c2cc(C(N)=O)c(N)nc2n(C2CC2)c1=O [eEF2K inhibitor]
effect on trans-RSV-mediated neurotoxicity [1]: protected against neurotoxic effects of trans-RSV

Cc1c(O)cccc1C(=O)N[C@@H](CSc1ccccc1)[C@H](O)CN1C[C@H]2CCCC[C@H]2C[C@H]1C(=O)NC(C)(C)C [nelfinavir]
TyrRS protein levels [5, 11]: depleted neuronal TyrRS

O=C(c1cc(Cc2n[nH]c(=O)c3ccccc23)ccc1F)N1CCN(C(=O)C2CC2)CC1 [olaparib]
effect on cis-RSV-mediated neuroprotective effects [1]: mitigated the neuroprotective effects of cis-RSV
effect on trans-RSV-mediated neurotoxicity [1]: did not affect trans-RSV-mediated neurotoxicity

N[C@@H](Cc1ccccc1)C(=O)O [phenylalanine, L-phenylalanine]
TyrRS protein levels [5, 11]: decreased the levels of TyrRS
PheRSβ levels [6]: decreased the levels of TyrRS and PheRSβ

Cn1ncnc1[C@H]1c2n[nH]c(=O)c3cc(F)cc(c23)N[C@@H]1c1ccc(F)cc1 [talazoparib]
effect on amyloid beta 42-induced monosome formation ([9]; combination with amyloid beta 42 (10 picomolar)): lost

amyloid beta 40: amyloid beta 40 peptide at picomolar concentration
neuronal TyrRS levels [5]: stimulation of neuronal TyrRS protein levels
histone serine-ADP-ribosylation [3]: activation of histone serine-ADP-ribosylation

amyloid beta 42: amyloid beta 42 peptide at physiological picomolar concentration
monosome formation ([9]; picomolar amyloid beta 42 (5-50 pM; 10 picomolar in FIG. 20A)): endogenous stimulator of monosome formation
neuronal TyrRS levels [5]: stimulation of neuronal TyrRS protein levels; also recorded: endogenous stimulator
chromatin trapping of auto-PARylated PARP1 with Rad52, DNA polymerase beta, ligase III, TyrRS [10]: trapping of auto-PARylated PARP1 along with Rad52, DNA polymerase beta, ligase III, TyrRS onto the chromatin
histone serine-ADP-ribosylation [3]: activation of histone serine-ADP-ribosylation; also recorded: endogenous stimulator

B1: BDNF: brain-derived neurotrophic factor (protein, UniProt P23560 19-247, looked up)
Neurotrophic factor BDNF …: APMKEANIRGQGGLAYPGVRTHGTLESVNGPKAGSRGLTSLADTFEHVIEELLDEDQKVRPNEENNKDADLYTSRVMLSSQVPLEPPLLFLLEEYKNYLDAANMSMRVRRHSDPARRGELSVCDSISEWVTAADKKTAVDMSGGTVTVLEKVPVSKGQLKQYFYETKCNPMGYTKEGCRGIDKRHWNSQCRTTQSYVRALTMDSKKRIGWRFIRIDTSCVCTLTIKRGR
TyrRS protein levels [5, 11]: stimulates the de novo synthesis of neuronal TyrRS
histone H3 serine-ADP-ribosylation [3]: induction of histone H3 serine-ADP-ribosylation
HPF1 levels [7]: increased HPF1 levels

From patent US20250241878A1, “TYROSINE AND RESVERATROL DERIVATIVES AS NOVEL MODULATORS OF CELLULAR SERINE ADP-RIBOSYLATION” (UNIVERSITY OF SOUTH CAROLINA, priority 2022, published 2025)
